Values joined by “and” are separate entries in the source; they are usually repeats but may differ in a detail not shown here. Equal values may be shown once.
What was measured:
[1] = Short-term and freeze/thaw stability of PGD2 in urine; assay type: physicochemical, human
Protocol: Urine samples were collected into plastic containers. Specimens were stored according to the following conditions: • Short Term Storage • Urine Frozen (≤−10° C. and ≤−55° C.): 8 days • Urine Refrigerated (2-8° C.): 3 days • Urine Room Temperature (15-30° C.): 3 days • Urine Freeze/Thaw (≤−10° C.): 6 Cycles • Long Term Storage • Urine Frozen (≤−10° C.): Stability testing in process • Shipping Conditions: • Urine Frozen (≤−10° C.):—on dry ice PGD2 was stable for at least 3 days at 4° C. and at room temperature and 8 days frozen (≤−10° C. or ≤−55° C.). PGD2 was stable for at least 6 freeze-thaw cycles (≤−10° C. or ≤−55° C.). [table]

[2] = Autosampler stability, urine assay; assay type: physicochemical; conditions: human urine assay, stored refrigerated for up to 3 days and 8 hours
Protocol: Autosampler stability. […] To validate autosampler stability a batch containing two sets of calibrators and QCs was processed as normal. After completion of assay processing the first set of calibrators, QCs, and normal urines was injected and analyzed. After analysis the assay batch was stored refrigerated in the autosampler prior to reinjection of the first set of samples and first time injection of the second set of calibrators and QCs. The 96-well plates containing the processed assay were stored refrigerated in the autosampler for approximately 3 days, 8 hours, and 36 minutes before injection was completed for all samples. Post-storage recoveries were based on target concentrations for the stored, first time injection samples. Reinjected samples were compared to initial injection results to determine recoveries. Autosampler study results met acceptance criteria. […] Assay batches stored refrigerated for up to 3 days and 8 hours were stable and suitable for first time injection or re-injection to determine Prostaglandin D2 concentrations in human urine.

[3] = Autosampler stability, serum assay; assay type: physicochemical; conditions: human serum assay, stored refrigerated for up to 3 days and 22 hours
Protocol: Autosampler stability. […] To validate autosampler stability a batch containing two sets of calibrators and QCs was processed as normal. After completion of assay processing the first set of calibrators and QCs was injected and analyzed. After analysis the assay batch was stored refrigerated in the autosampler prior to reinjection of the first set of samples and first time injection of the second set of calibrators and QCs. The 96-well plates containing the processed assay were stored refrigerated in the autosampler for approximately 3 days, 22 hours, and 16 minutes before injection was completed for all samples. Post-storage recoveries were based on target concentrations for the stored, first time injection samples. Reinjected samples were compared to initial injection results to determine recoveries. Autosampler study results met acceptance criteria. Assay batches stored refrigerated for up to 3 days and 22 hours are stable and suitable for first time injection or re-injection to determine Prostaglandin D2 concentrations in human serum.

[4] = Short-term and freeze/thaw stability in human serum; assay type: physicochemical; conditions: for Mean concentration at stability time point / Measured Concentration (replicates): Donors 1-3; for Measured Concentration (replicates): human serum
Protocol: Serum samples were collected into red top tubes and frozen immediately. Specimens were stored according to the following conditions: • Short Term Storage • Serum Frozen (≤−10° C. and ≤−55° C.): 7 days • Serum Refrigerated (2-8° C.): Strictly frozen storage.
Short-term and freeze/thaw stability. Sample stability was confirmed by testing human serum from three individual donors that was stored at each of the different conditions likely to be encountered in sample handling and laboratory analysis. […] An additional set of the freshly collected serum underwent up to 6 freeze/thaw cycles prior to stability testing. All serum stability samples and baseline stored samples were tested with freshly prepared calibrators. All testing was performed in triplicate.

[5] = Calibrator freeze/thaw stability; assay type: physicochemical; conditions: for replicates within 85-115% of the target: calibrator matrix
Protocol: Calibrator freeze/thaw stability. Calibrator freeze/thaw stability was examined by analyzing using an accuracy sample made in calibrator amatrix (A4 at 250 pg/mL). The accuracy sample underwent up to 6 freeze/thaw cycles prior to stability testing. Freeze/thaw cycles were performed as per Example 3. Times and temperatures were recorded on the incubation study stability forms. All testing was performed in triplicate. The target concentration for the accuracy sample was used to define acceptable ranges for measured concentrations after freeze/thaw cycles. For the first five freeze/thaw cycles, 100% of replicates were within 85-115% of the target (TABLE 15). For the sixth freeze/thaw cycle >60% of replicates were within 85-115% of the target (TABLE 15). […] Prostaglandin D2 is stable in calibrator matrix after 5 freeze/thaw cycles (6 total thaws).

[6] = system: human ovarian tumor cell; conditions: read-out: IC50, inhibition of human ovarian tumor cell proliferation; cited from earlier work
[7] = Freeze/Thaw (<−10° C.), 1 Cycle (2 Thaws)
[8] = Freeze/Thaw (<−10° C.), 2 Cycles (3 Thaws)
[9] = Refrigerated (2-8° C.), 3.5 Hours

stable for at least (time) ([1]; 4° C.): at least 3 days | stable for at least (time) ([1]; frozen (≤−10° C. or ≤−55° C.)): ≥ 8 days | stable for at least (time) ([1]; room temperature): at least 3 days | stable for at least (freeze-thaw cycles) ([1]; ≤−10° C. or ≤−55° C.): at least 6 freeze-thaw cycles | Autosampler stability of processed assay batches [2]: stable | Autosampler stability of processed assay batches [3]: stable | % of replicates within 85-115% of mean at baseline [4, 7]: 100.00% | % of replicates within 85-115% of mean at baseline [4, 8]: 77.78% | % of replicates within 85-115% of mean at baseline ([4]; Freeze/Thaw (<−10° C.), 3 Cycles (4 Thaws)): 0.00% | % of replicates within 85-115% of mean at baseline ([4]; Freeze/Thaw (<−10° C.), 6 Cycles (7 Thaws)): 0.00% | % of replicates within 85-115% of mean at baseline ([4]; Frozen (<−55° C.), 7 Days): 100.00% | % of replicates within 85-115% of mean at baseline ([4]; Frozen (≤−10° C.), 7 Days): 100.00% | % of replicates within 85-115% of mean at baseline ([4]; Refrigerated (2-8° C.), 1 Day): 0.00% | % of replicates within 85-115% of mean at baseline ([4]; Refrigerated (2-8° C.), 3 Days): 0.00% | Mean concentration at stability time point ([4]; Refrigerated (2-8° C.), 3 Days): 3.83 pg/mL and 4.93 pg/mL and 3.33 pg/mL | % of replicates within 85-115% of mean at baseline [4, 9]: 88.89% | % of replicates within 85-115% of mean at baseline ([4]; Refrigerated (2-8° C.), 7 Hours): 0.00% | % of replicates within 85-115% of mean at baseline ([4]; Room Temp (15-30° C.), 1 Day): 0.00% | Mean concentration at stability time point ([4]; Room Temp (15-30° C.), 1 Day): 6.95 pg/mL and 4.42 pg/mL and 4.22 pg/mL | % of replicates within 85-115% of mean at baseline ([4]; Room Temp (15-30° C.), 3 Days): 0.00% | Mean concentration at stability time point ([4]; Room Temp (15-30° C.), 3 Days): 9.17 pg/mL and 6.27 pg/mL and 5.78 pg/mL | % of replicates within 85-115% of mean at baseline ([4]; Room Temp (15-30° C.), 3.5 Hours): 0.00% | % of replicates within 85-115% of mean at baseline ([4]; Room Temp (15-30° C.), 7 Hours): 0.00% | Short-term and freeze/thaw stability study result ([4]; frozen and refrigerated serum): did meet acceptance criteria | Short-term stability study result ([4]; serum stored at room temperature): did not meet acceptance criteria | stable in calibrator matrix after (freeze/thaw cycles) ([5]; accuracy sample A4 at 250 pg/mL): 5 freeze/thaw cycles | replicates within 85-115% of the target ([5]; first five freeze/thaw cycles): 100% | replicates within 85-115% of the target ([5]; sixth freeze/thaw cycle): > 60%
Compound: CCCCC[C@H](O)/C=C/[C@H]1C(=O)C[C@H](O)[C@@H]1C/C=C\CCCC(=O)O [PGD2, prostaglandin D2]
Measured Concentration (replicates) [4, 7]: 23.2 pg/mL and 95.8 pg/mL and 52.9 pg/mL and 21.1 pg/mL and 107 pg/mL (2×) and 52.4 pg/mL and 23.4 pg/mL and 60.5 pg/mL | Measured Concentration (replicates) [4, 8]: 22.1 pg/mL and 93.3 pg/mL and 19.4 pg/mL and 51.4 pg/mL and 19.7 pg/mL and 92.0 pg/mL and 51.2 pg/mL | Measured Concentration (replicates) ([4]; Frozen (<−55° C.), 7 Days): 24.5 pg/mL (3×) and 119 pg/mL and 65.7 pg/mL and 121 pg/mL and 66.8 pg/mL and 122 pg/mL and 67.9 pg/mL | Measured Concentration (replicates) ([4]; Frozen (≤−10° C.), 7 Days): 23.3 pg/mL (2×) and 101 pg/mL and 53.8 pg/mL and 113 pg/mL (2×) and 57.9 pg/mL and 24.2 pg/mL and 62.3 pg/mL | Measured Concentration (replicates) [4, 9]: 103 pg/mL and 57.9 pg/mL and 20.9 pg/mL and 107 pg/mL and 57.6 pg/mL and 19.9 pg/mL and 93.5 pg/mL and 54.7 pg/mL | Measured Concentration (replicates) ([4]; day of collection, time 0): 21.9 pg/mL and 104 pg/mL and 60.4 pg/mL and 22.0 pg/mL and 107 pg/mL and 59.1 pg/mL and 24.7 pg/mL and 111 pg/mL and 55.6 pg/mL | IC50 [6]: 6.8 µM

— patent publication US12025619B2, “Methods and systems for detecting prostaglandins by LC-MS/MS” (Laboratory Corporation of America Holdings, priority 2020, dated 2024)
